Data published in article PMC9402538, “Rational design of a sensitivity-enhanced tracer for discovering efficient APC–Asef inhibitors” (Nature Communications, 2022).
Where “and” joins values, the source holds several entries; their conditions need not be identical. Identical values can stand only once. Like-named read-outs stand apart in the source and are kept apart here. Where a SMILES comes first, the peptide text is derived from it. The star is where a group is joined. Adamantane1carbonyl = O=C(C12CC3CC(CC(C3)C1)C2)*; Thiophene2carbonyl = O=C(c1cccs1)*; Bz = O=C(c1ccccc1)*; X2 = O=C(c1cncs1)*

Legend:
[1] = molecular target: T1, APC (303–739) (Homo sapiens, UniProt P25054); experiment: FP competitive assay using tracer 7; type: binding; conditions: for FP(mp): Tracer 7, replicate wells
T1 sequence (P25054 303-739): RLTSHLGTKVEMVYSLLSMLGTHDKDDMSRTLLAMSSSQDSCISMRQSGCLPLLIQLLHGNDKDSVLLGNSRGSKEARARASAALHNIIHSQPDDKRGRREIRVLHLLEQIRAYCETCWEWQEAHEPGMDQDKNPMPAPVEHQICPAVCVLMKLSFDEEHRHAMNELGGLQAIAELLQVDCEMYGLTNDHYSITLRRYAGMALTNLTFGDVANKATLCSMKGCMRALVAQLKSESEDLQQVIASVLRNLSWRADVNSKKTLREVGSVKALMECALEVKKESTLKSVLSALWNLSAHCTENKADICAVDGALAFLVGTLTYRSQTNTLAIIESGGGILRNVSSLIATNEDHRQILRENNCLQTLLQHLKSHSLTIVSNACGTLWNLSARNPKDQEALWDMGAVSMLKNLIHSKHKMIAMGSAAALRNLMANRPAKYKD
Procedure: (§1) FITC-labeled tracer peptides were obtained from Changzhou Kanglong Biotech Ltd. (Changzhou, Jiangsu, China). […]. The FP signal changes upon tracer binding were measured after 1.5 h of incubation using a Synergy neo microplate reader (BioTek Instruments, Inc.) and plotted against the protein concentration. The corresponding EC50 values were generated by fitting the curves with a nonlinear regression model. […]. To make a working solution, APC (303–739) was diluted in FP buffer (50 mM HEPES, pH 7.5, 300 mM NaCl, 1 mM EDTA, 1 mM DTT). The diluted APC protein (91 μL) was combined with a serial dilution of peptides (4 μL) and incubated at room temperature for 1 h, followed by the addition of 5 μL of 400 nM tracer 7. The FP signals were measured after 1.5 h of incubation at room temperature using a Synergy neo microplate reader. Three controls were included on each plate, i.e., blank (without protein and tracer), 100% inhibition (free tracer only), and 0% inhibition (protein/tracer complex only) controls. All experiments were performed in triplicate. The IC50 values of peptides were calculated by nonlinear regression analysis using GraphPad Prism 7.0 software.

[2] = molecular target: T2, APC (Homo sapiens, UniProt P25054); experiment: FP competitive assay using tracer 1; type: binding; conditions: for FP(mp): Tracer 1, triplicate raw readings
T2 sequence (P25054 303-739): T1 sequence (P25054 303-739)
Procedure: In our previous study, we established an FP assay for screening APC–Asef inhibitors using FITC-labeled tracer 1 (Ac–^176[…][FITC]^195–NH2)[16]. […]. However, their Kd values measured by isothermal titration calorimetry (ITC) actually vary up to more than 20 times[16],[17]. […].
as §1, with “The diluted APC protein (91 μL) was combined with a serial dilution of peptides (4 μL) and incubated at room temperature for 1 h, followed by the addition of 5 μL of 400 nM tracer 7.” left out

[3] = Repeat 1, Table 3 source data, read-out: IC50(μM) Repeat 1
[4] = Repeat 2, Table 3 source data, read-out: IC50(μM) Repeat 2
[5] = Repeat 3, Table 3 source data, read-out: IC50(μM) Repeat 3
[6] = mean of 3 repeats, Table 3 source data, read-out: IC50(μM) mean
[7] = Supplementary Table 4, read-out: IC50, Tracer 1

SMILES | FP(mp) ([1]; Conc. 0.0061 μM) | FP(mp) ([1]; Conc. 0.0122 μM) | FP(mp) ([1]; Conc. 0.0244 μM) | FP(mp) ([1]; Conc. 0.05 μM) | FP(mp) ([1]; Conc. 0.10 μM) | FP(mp) ([1]; Conc. 0.20 μM) | FP(mp) ([1]; Conc. 0.39 μM) | FP(mp) ([1]; Conc. 0.78 μM) | FP(mp) ([1]; Conc. 1.56 μM) | FP(mp) ([1]; Conc. 3.13 μM) | FP(mp) ([1]; Conc. 6.25 μM) | FP(mp) ([1]; Conc. 12.50 μM) | FP(mp) ([1]; Conc. 25.00 μM) | FP(mp) ([1]; Conc. 50.00 μM) | FP(mp) ([2]; Conc. 0.05 μM) | FP(mp) ([2]; Conc. 0.10 μM) | FP(mp) ([2]; Conc. 0.20 μM) | FP(mp) ([2]; Conc. 0.39 μM) | FP(mp) ([2]; Conc. 0.78 μM) | FP(mp) ([2]; Conc. 1.56 μM) | other results
CC(C)C[C@H](NC(=O)[C@H](CO)NC(=O)[C@H](CCC(=O)O)NC(=O)CNC(=O)[C@H](C)NC(=O)c1ccccc1)C(=O)N[C@@H](Cc1ccc(O)cc1)C(N)=O [MAI-463] (Bz-AGESLY-NH2) |  |  |  |  |  |  |  |  |  |  |  |  |  |  |  |  |  |  |  |  | IC50 ([1]; IC50, Tracer 7, Supplementary Table 4): 1.3 ± 0.05 µM; IC50 [2]: 730 ± 150 nM
CC(C)C[C@H](NC(=O)[C@H](CO)NC(=O)[C@H](CCC(=O)O)NC(=O)CNC(=O)[C@H](C)NC(=O)C12CC3CC(CC(C3)C1)C2)C(=O)N[C@@H](Cc1ccc(O)cc1)C(=O)N[C@@H](CCC(=O)O)C(N)=O [MAI-505] (Adamantane1carbonyl-AGESLYE-NH2) | 310 mp and 307 mp and 309 mp | 303 mp and 302 mp and 307 mp | 307 mp and 305 mp and 308 mp | 302 mp and 304 mp and 307 mp | 294 mp and 293 mp and 295 mp | 282 mp (2×) and 276 mp | 256 mp and 254 mp and 252 mp | 224 mp and 222 mp and 229 mp | 180 mp and 186 mp and 189 mp | 136 mp and 134 mp and 137 mp | 106 mp (2×) and 108 mp | 85 mp and 86 mp and 89 mp | 67 mp and 68 mp and 71 mp | 57 mp and 60 mp and 59 mp | 181 mp | 177 mp and 182 mp and 179 mp | 161 mp and 172 mp and 174 mp | 139 mp and 163 mp and 161 mp | 68 mp and 100 mp and 109 mp | 56 mp and 64 mp and 68 mp | IC50 [1, 3]: 1.57 µM; IC50 [1, 4]: 1.73 µM; IC50 [1, 5]: 1.57 µM; IC50 [1, 6]: 1.62 µM; IC50 [2, 7]: 440 ± 120 nM; FP(mp) ([2]; Conc. 3.13 μM): 57 mp and 55 mp and 56 mp; FP(mp) ([2]; Conc. 6.25 μM): 52 mp and 51 mp; FP(mp) ([2]; Conc. 12.50 μM): 51 mp and 49 mp and 50 mp; FP(mp) ([2]; Conc. 25.00 μM): 47 mp and 50 mp; FP(mp) ([2]; Conc. 50.00 μM): 49 mp and 51 mp; FP(mp) ([2]; Conc. 100.00 μM): 50 mp and 48 mp; FP(mp) ([2]; Conc. 200.00 μM): 50 mp and 51 mp; FP(mp) ([2]; Conc. 400.00 μM): 50 mp and 49 mp
CC(C)C[C@H](NC(=O)[C@H](CO)NC(=O)[C@H](CCC(=O)O)NC(=O)CNC(=O)[C@H](C)NC(=O)c1cccs1)C(=O)N[C@@H](Cc1ccc(O)cc1)C(=O)N[C@@H](CCC(=O)O)C(N)=O [MAI-507] (Thiophene2carbonyl-AGESLYE-NH2) | 306 mp and 304 mp and 305 mp | 299 mp and 301 mp (2×) | 278 mp and 279 mp and 280 mp | 256 mp (2×) and 257 mp | 216 mp and 219 mp (2×) | 178 mp (2×) and 173 mp | 138 mp and 133 mp and 136 mp | 107 mp and 99 mp and 101 mp | 89 mp and 77 mp and 80 mp | 75 mp and 72 mp (2×) | 59 mp and 54 mp and 58 mp | 60 mp (2×) and 54 mp | 54 mp and 51 mp and 52 mp | 57 mp (2×) and 54 mp | 180 mp and 182 mp | 173 mp and 180 mp and 179 mp | 168 mp and 169 mp and 173 mp | 130 mp and 156 mp and 153 mp | 56 mp and 61 mp and 98 mp | 53 mp and 54 mp and 52 mp | IC50 ([1]; IC50(μM) Repeat 1, Repeat 1, Table 3 source data): 0.173 µM; IC50 ([1]; IC50(μM) Repeat 2, Repeat 2, Table 3 source data): 0.162 µM; IC50 ([1]; IC50(μM) Repeat 3, Repeat 3, Table 3 source data): 0.175 µM; IC50 ([1]; IC50(μM) mean, mean of 3 repeats, Table 3 source data): 0.17 µM; IC50 ([1]; IC50 ± SD, tracer 7, APC 25 nM, average of three independent experiments): 0.17 ± 0.007 µM; IC50 [2]: 340 ± 120 nM; FP(mp) ([2]; Conc. 3.13 μM): 53 mp and 50 mp and 52 mp; FP(mp) ([2]; Conc. 6.25 μM): 50 mp and 51 mp; FP(mp) ([2]; Conc. 12.50 μM): 50 mp and 47 mp and 48 mp; FP(mp) ([2]; Conc. 25.00 μM): 51 mp and 47 mp and 48 mp; FP(mp) ([2]; Conc. 50.00 μM): 49 mp and 47 mp and 48 mp; FP(mp) ([2]; Conc. 100.00 μM): 48 mp and 47 mp; FP(mp) ([2]; Conc. 200.00 μM): 48 mp; FP(mp) ([2]; Conc. 400.00 μM): 49 mp and 48 mp
CC(C)C[C@H](NC(=O)[C@H](CO)NC(=O)[C@H](CCC(=O)O)NC(=O)CNC(=O)[C@H](C)NC(=O)c1cncs1)C(=O)N[C@@H](Cc1ccc(O)cc1)C(=O)N[C@@H](CCC(=O)O)C(N)=O [MAI-508] (X2-AGESLYE-NH2) | 306 mp | 306 mp and 305 mp and 307 mp | 290 mp (2×) and 289 mp | 268 mp and 265 mp and 269 mp | 236 mp and 233 mp (2×) | 190 mp and 195 mp and 192 mp | 150 mp and 147 mp and 149 mp | 113 mp (2×) and 114 mp | 85 mp and 90 mp and 86 mp | 73 mp and 71 mp and 74 mp | 65 mp and 60 mp and 61 mp | 61 mp and 56 mp and 59 mp | 52 mp and 55 mp and 57 mp | 58 mp and 50 mp and 54 mp | 185 mp and 183 mp and 179 mp | 180 mp and 181 mp and 176 mp | 173 mp and 176 mp | 162 mp and 161 mp | 105 mp and 98 mp and 106 mp | 54 mp and 56 mp | IC50 [1, 3]: 0.221 µM; IC50 [1, 4]: 0.194 µM; IC50 [1, 5]: 0.241 µM; IC50 [1, 6]: 0.219 µM; IC50 [2, 7]: 480 ± 160 nM; FP(mp) ([2]; Conc. 3.13 μM): 52 mp and 48 mp and 49 mp; FP(mp) ([2]; Conc. 6.25 μM): 50 mp and 47 mp and 48 mp; FP(mp) ([2]; Conc. 12.50 μM): 47 mp and 46 mp; FP(mp) ([2]; Conc. 25.00 μM): 50 mp and 48 mp and 46 mp; FP(mp) ([2]; Conc. 100.00 μM): 50 mp and 47 mp; FP(mp) ([2]; Conc. 200.00 μM): 51 mp and 48 mp and 49 mp; FP(mp) ([2]; Conc. 400.00 μM): 51 mp and 49 mp
